# In ChEMBL document CHEMBL2016436, “X-ray crystallographic structure-based design of selective thienopyrazole inhibitors for interleukin-2-inducible tyrosine kinase” (Bioorg Med Chem Lett, 2012):
# Assays:
# [1] = molecular target: T1, Tyrosine-protein kinase ITK/TSK (Homo sapiens, UniProt Q08881); experiment: Inhibition of recombinant N-terminus His6 tagged Itk (357-620) autophosphorylation expressed in insect Sf9 cells using [33P]ATP by scintillation counting
# T1 sequence (Q08881 whole entry): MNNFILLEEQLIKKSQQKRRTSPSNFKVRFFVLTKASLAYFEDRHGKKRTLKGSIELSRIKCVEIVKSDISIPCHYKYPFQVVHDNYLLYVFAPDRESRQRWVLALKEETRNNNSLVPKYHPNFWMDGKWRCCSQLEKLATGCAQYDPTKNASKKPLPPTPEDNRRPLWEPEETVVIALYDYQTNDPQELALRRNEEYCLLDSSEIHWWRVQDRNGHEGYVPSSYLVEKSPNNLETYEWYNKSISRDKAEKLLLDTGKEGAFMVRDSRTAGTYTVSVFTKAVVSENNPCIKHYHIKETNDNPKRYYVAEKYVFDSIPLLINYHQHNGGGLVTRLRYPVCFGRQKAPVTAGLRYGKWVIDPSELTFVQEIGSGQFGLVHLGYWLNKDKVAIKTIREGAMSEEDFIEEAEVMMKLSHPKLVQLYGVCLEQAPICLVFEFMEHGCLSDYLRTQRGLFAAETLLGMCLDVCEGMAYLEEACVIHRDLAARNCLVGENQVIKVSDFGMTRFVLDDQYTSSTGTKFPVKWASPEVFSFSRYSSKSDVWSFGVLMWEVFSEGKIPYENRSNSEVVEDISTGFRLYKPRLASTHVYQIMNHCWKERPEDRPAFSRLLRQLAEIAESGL
# [2] = molecular target: Tyrosine-protein kinase Lck (Homo sapiens, UniProt P06239); experiment: Inhibition of Lck autophosphorylation using [33P]ATP by scintillation counting
# Sequence of Tyrosine-protein kinase Lck (P06239 whole entry): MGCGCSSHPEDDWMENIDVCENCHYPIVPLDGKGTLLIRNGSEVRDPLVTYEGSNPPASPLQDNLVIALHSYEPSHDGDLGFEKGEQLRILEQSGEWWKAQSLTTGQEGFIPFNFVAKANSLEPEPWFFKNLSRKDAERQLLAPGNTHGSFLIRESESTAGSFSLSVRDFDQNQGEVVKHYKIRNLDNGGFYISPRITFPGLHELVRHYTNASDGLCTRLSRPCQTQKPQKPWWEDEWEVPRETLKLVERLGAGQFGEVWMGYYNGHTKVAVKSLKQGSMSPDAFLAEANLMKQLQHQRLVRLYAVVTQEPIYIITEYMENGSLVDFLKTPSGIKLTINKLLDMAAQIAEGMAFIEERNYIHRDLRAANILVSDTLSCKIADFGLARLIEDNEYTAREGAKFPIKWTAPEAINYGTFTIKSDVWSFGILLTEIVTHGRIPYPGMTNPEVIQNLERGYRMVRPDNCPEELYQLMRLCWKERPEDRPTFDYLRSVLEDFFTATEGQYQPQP
# [3] = molecular target: Tyrosine-protein kinase SYK (Homo sapiens, UniProt P43405); experiment: Inhibition of recombinant N-terminus His6 tagged Syk (343 to 635) autophosphorylation expressed in insect Sf9 cells using [33P]ATP by scintillation counting
# [4] = molecular target: T2, Tyrosine-protein kinase TXK (Homo sapiens, UniProt P42681); experiment: Inhibition of Txk autophosphorylation using [33P]ATP by scintillation counting
# T2 sequence (P42681 whole entry): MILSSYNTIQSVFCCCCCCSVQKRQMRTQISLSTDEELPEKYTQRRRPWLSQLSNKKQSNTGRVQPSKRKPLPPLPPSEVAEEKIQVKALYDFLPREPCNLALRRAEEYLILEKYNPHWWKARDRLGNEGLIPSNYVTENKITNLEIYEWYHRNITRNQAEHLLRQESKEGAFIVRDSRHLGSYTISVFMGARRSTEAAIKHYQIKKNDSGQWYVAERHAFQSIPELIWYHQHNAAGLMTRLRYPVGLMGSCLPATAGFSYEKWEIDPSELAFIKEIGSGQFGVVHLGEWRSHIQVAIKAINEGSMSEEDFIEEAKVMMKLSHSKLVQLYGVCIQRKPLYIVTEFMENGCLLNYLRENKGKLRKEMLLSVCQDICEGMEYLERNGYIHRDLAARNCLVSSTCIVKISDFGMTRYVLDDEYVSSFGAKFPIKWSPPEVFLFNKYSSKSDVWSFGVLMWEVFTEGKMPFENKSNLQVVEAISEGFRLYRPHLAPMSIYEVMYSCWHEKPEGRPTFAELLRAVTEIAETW
smiles,measurement,setting,value
Oc1ccc2nc(-c3n[nH]c4ccccc34)[nH]c2c1,IC50,[1],200 nM
CCC(O)(CC)c1cc(OCCN2CCOCC2)c2cc(-c3n[nH]c4ccsc34)[nH]c2c1,IC50,[2],162 nM
same,IC50,[3],287 nM
same,IC50,[4],55.7 nM
CCC(O)(CC)c1ccc2cc(-c3n[nH]c4ccsc34)[nH]c2c1,IC50,[2],1100 nM
same,IC50,[3],186 nM
same,IC50,[4],66.5 nM
CCC(O)(CC)c1ccc2c(-c3ccc(OC)cc3)c(-c3n[nH]c4ccsc34)[nH]c2c1,IC50,[2],3180 nM
same,IC50,[3],939 nM
same,IC50,[4],241 nM
CC(C)(O)c1ccc2cc(-c3n[nH]c4ccsc34)[nH]c2c1,IC50,[1],1.9 nM
same,IC50,[2],63.9 nM
same,IC50,[4],73.8 nM
CCC(O)(CC)c1ccc2cc(-c3n[nH]c4cc(C(F)F)sc34)[nH]c2c1,IC50,[2],39.2 nM
same,IC50,[4],77.5 nM
CCC(O)(CC)c1ccc2cc(-c3n[nH]c4cc(-c5ccccc5)sc34)[nH]c2c1,IC50,[2],203 nM
same,IC50,[3],2470 nM
same,IC50,[4],441 nM
